Assay results published in patent US9101567B2, “Suppression of cancer growth and metastasis using nordihydroguaiaretic acid derivatives with 7-hydroxystaurosporine” (The Johns Hopkins University, priority 2010, dated 2015).

What was measured:
[1] = system: mitochondrial membrane potential (ΔΨm); experiment: Measurement of mitochondrial membrane potential with JC-1 dye in LNCaP cells; assay type: cell-based, human
Protocol: The cells were cultured in 6 well microwell dishes and treated with the culture medium containing JC-1 dye (Cayman Chemical, Ann Arbor, Mich.) for 30 min, according to the company's protocol. After the cells had been washed carefully, they were treated with M4N for 5 hrs. The cells were observed through B29/Zeiss LSM 510 μMETA laser confocal microscope (Carl Zeiss, Germany). The cell images were captured by two different excitation lights (with 488 nm argon-ion and 568 nm argon-krypton lasers). Both JC-1 monomer and J-aggregates are detected by 488 nm excitation light while only J-aggregates are detected by 568 nm excitation light. The ratio of the intensity of the emission light excited by 568 nm light to that of the emission light excited by 488 nm light at every pixel of images (The ratio should indicate the mitochondrial potential) was calculated by the imaging software (Carl Zeiss, Germany). In the figure the ratio was shown by pseudo color. Red color indicates high ratio (high potential) while dark blue indicates low ratio (low potential). Yellow through green to light blue represents medium ratio (medium potential).
Since BNIP3 functions to activate mitochondria-related cell death machinery and induce mitochondrial membrane depolarization, the effect of M4N on the mitochondrial membrane potential (ΔΨm) was examined (FIG. 3C). […]

[2] = system: BNIP3L; experiment: Western blotting of BNIP3L in LNCaP cells; assay type: cell-based, human; details: M4N 80 μM
Protocol: The sample volumes were adjusted by the total protein amount. Protein assay was performed by Bio-Rad Protein Assay (Bio-Rad Laboratories, Inc. Hercules, Calif.). The samples were resolved by the standard SDS-polyacrylamide gel electrophoresis and transferred to nitrocellulose membrane (Amersham Biosciences, Bjorkgatan, Sweden). The membranes were blocked with skim milk, and incubated with primary antibodies at 4° C. overnight and then with secondary antibody conjugated with horse radish peroxidase at room temperature for 2 hrs. The signals were detected by western blot chemiluminescence reagent plus (New England Nuclear Life Science Products, Boston, Mass.). BNIP3 is a member of Bcl-2 family proteins which sends pro-apoptotic signal to mitochondria and induces mitochondrial membrane potential depolarization. […] This implies that BNIP3 is involved in autophagy as well as cell death. […] Since BNIP3 is known to be activated more under hypoxic conditions (24), BNIP3 expression was examined in both normoxic and hypoxic conditions (FIGS. 3A&B). […] Previously it was shown that BNIP3 expression is augmented by hypoxia through both […] (HIF)1α-dependent and nondependent pathways (24).

[3] = system: BNIP3; experiment: Western blotting of BNIP3 in LNCaP cells, normoxic or hypoxic; assay type: cell-based, human; details: normoxic or hypoxic condition, M4N 80 μM
Source text: LNCaP human prostate cancer, DU145 human prostate cancer, PC3 human prostate cancer, MCF-7 human breast cancer, MDA-MB-231 human breast cancer, MDA-MB-468 human breast cancer, HT29 human colon cancer, K562 human myelogenous leukaemia, HepG2 human hepatoma, Hep3B human hepatoma, and LN229 human glioblastoma cancer cell lines were purchased from American Type Culture Collection (Manassas, Va.). OC24 human ascites ovarian cancer cell line was a generous gift from Dr. XXX (Johns Hopkins University, MD). LNCaP cell line was cultured in RPMI1640 medium supplemented with glucose (14 mM), pyruvate (1 mM), and fetal bovine serum (FBS) (10%). DU145 cell line was cultured in MEM supplemented with non-essential amino acids, glucose (21 mM), pyruvate (1 mM), and FBS (10%). PC3 cell line was cultured in F-12K medium supplemented with FBS (10%). MCF-7 cell line was cultured in DMEM supplemented with FBS (10%). OC24 cell line was cultured in RPMI1640 medium supplemented with FBS (10%) as suspension culture. MDA-MB-231 and 468 cell lines were cultured in Leibovitz's L15 medium supplemented with FBS (10%) under air. HT29 cell line was cultured in DMEM supplemented with glucose (25 mM) and FBS (10%). K562 cell line was cultured in RPMI1640 supplemented with FBS (10%). […] The signals were detected by western blot chemiluminescence reagent plus (New England Nuclear Life Science Products, Boston, Mass.). […]

[4] = human patients (reference 10); cited from earlier work
[5] = system: caspase-7; experiment: Western blotting of caspase-7 cleavage in HepG2 cells; assay type: cell-based, human; details: HepG2, 17 hrs; M4N 80 μM, etoposide 20 μM, rapamycin 20 μM, UCN-01 5 μM
Protocol: (§1) The sample volumes were adjusted by the total protein amount. Protein assay was performed by Bio-Rad Protein Assay (Bio-Rad Laboratories, Inc. Hercules, Calif.). The samples were resolved by the standard SDS-polyacrylamide gel electrophoresis and transferred to nitrocellulose membrane (Amersham Biosciences, Bjorkgatan, Sweden). The membranes were blocked with skim milk, and incubated with primary antibodies at 4° C. overnight and then with secondary antibody conjugated with horse radish peroxidase at room temperature for 2 hrs. The signals were detected by western blot chemiluminescence reagent plus (New England Nuclear Life Science Products, Boston, Mass.).
(§2) The effect of the combination treatments on cell death and autophagy was examined in two cell lines other than LNCaP cells.

[6] = system: caspase-7; experiment: Western blotting of caspase-7 cleavage in MCF-7 cells; assay type: cell-based, human; details: MCF-7, 17 hrs; M4N 80 μM, etoposide 20 μM, rapamycin 20 μM, UCN-01 5 μM
Protocol: as §1, §2

| SMILES | mitochondrial membrane potential (ΔΨm) ([1]; 5 hrs, M4N 80 μM, JC-1 dye) | depolarization of mitochondrial membrane potential induced by rottlerin or Ly294002 ([1]; concomitant treatment with M4N) | BNIP3L expression [2] | BNIP3 protein expression [3] | toxicity in clinical trials [4] | caspase-7 cleavage product [5] | caspase-7 cleavage [6] |
| --- | --- | --- | --- | --- | --- | --- | --- |
| COc1ccc(C[C@@H](C)[C@@H](C)Cc2ccc(OC)c(OC)c2)cc1OC [M4N, Tetra-O-methyl nordihyroguaiaretic acid] | hyperpolarized | reversed to the normal potential to some extent | only slightly reduced | blocks BNIP3 protein expression | fairly nontoxic | – | – |
| CN[C@@H]1C[C@H]2O[C@@](C)([C@@H]1OC)n1c3ccccc3c3c4c(c5c6ccccc6n2c5c31)C(=O)N[C@H]4O [UCN-01, 7-hydroxystaurosporine] | – | – | – | – | – | great deal | detected |
